Test results from ChEMBL document CHEMBL4311959, “Discovery of a potent p38α/MAPK14 kinase inhibitor: Synthesis, in vitro/in vivo biological evaluation, and docking studies” (Eur J Med Chem, 2019).

Assays:
[1] = target: Voltage-gated inwardly rectifying potassium channel KCNH2 (Homo sapiens, UniProt Q12809); assay: Inhibition of human ERG incubated for 4 hrs by competitive fluorescence tracer binding based assay
[2] = target: T1, Mitogen-activated protein kinase 14 (Homo sapiens, UniProt Q16539); assay: Inhibition of human p38alpha using MBP as substrate by [gamma-33P]-ATP assay
[3] = target: DNA-dependent protein kinase catalytic subunit (Homo sapiens) (UniProt P78527); assay: Inhibition of human DNAPK at 10 uM using EPPLSQEAFADLWKK as substrate by […]-ATP assay relative to control
[4] = target: Epidermal growth factor receptor (Homo sapiens) (UniProt P00533); assay: Inhibition of human EGFR at 10 uM using poly[Glu:Tyr] (4:1) as substrate by [gamma-33P]-ATP assay relative to control
[5] = target: Mitogen-activated protein kinase 1 (Homo sapiens) (UniProt P28482); assay: Inhibition of human ERK2 at 10 uM using MBP as substrate by [gamma-33P]-ATP assay relative to control
[6] = target: Tyrosine-protein kinase Fyn (Homo sapiens) (UniProt P06241); assay: Inhibition of human FYN at 10 uM using poly[Glu:Tyr] (4:1) as substrate by [gamma-33P]-ATP assay relative to control
[7] = target: RAF proto-oncogene serine/threonine-protein kinase (Homo sapiens, UniProt P04049); assay: Inhibition of human RAF1 at 10 uM using MEK1 (K97R) as substrate by [gamma-33P]-ATP assay relative to control
[8] = tested on: Serine/threonine-protein kinase B-raf (Homo sapiens), P15056 [V600E]; assay: Inhibition of human BRAF V600E mutant at 10 uM using MEK1 (K97R) as substrate by [gamma-33P]-ATP assay relative to control
[9] = target: Tyrosine-protein kinase JAK1 (Homo sapiens) (UniProt P23458); assay: Inhibition of human JAK1 at 10 uM using poly[Glu:Tyr] (4:1) as substrate by [gamma-33P]-ATP assay relative to control
[10] = target: Tyrosine-protein kinase BTK (Homo sapiens) (UniProt Q06187); assay: Inhibition of human BTK at 10 uM using KVEKIGEGTYGVVYK as substrate by [gamma-33P]-ATP assay relative to control
[11] = target: Mast/stem cell growth factor receptor Kit (Homo sapiens) (UniProt P10721); assay: Inhibition of human c-KIT at 10 uM using poly[Glu:Tyr] (4:1) as substrate by [gamma-33P]-ATP assay relative to control
Rattus norvegicus = assay: Antiinflammatory activity in Sprague-Dawley rat assessed as inhibition of carrageenan-induced paw edema at 50 mg/kg, ip administered 1 hr before carrageenan stimulation and measured after 3 hrs relative to control; assay type: functional
[12] = AUClast in Sprague-Dawley rat at 10 mg/kg, iv measured for each 30 mins by LC-MS/MS analysis; assay type: ADME, organism-based; design: dose 10 mg/kg, route intravenous, time 0 - last; settings: in vivo
[13] = target: Receptor-type tyrosine-protein kinase FLT3 (Homo sapiens) (UniProt P36888); assay: Inhibition of human FLT3 at 10 uM using EAIYAAPFAKKK as substrate by [gamma-33P]-ATP assay relative to control
[14] = AUCinfinity in Sprague-Dawley rat at 10 mg/kg, po measured for each 30 mins by LC-MS/MS analysis; assay type: ADME, organism-based; design: dose 10 mg/kg, time infinity, route oral; settings: in vivo
[15] = target: Serine/threonine-protein kinase A-Raf (Homo sapiens) (UniProt P10398); assay: Inhibition of human ARAF at 10 uM using MEK1 as substrate by [gamma-33P]-ATP assay relative to control
[16] = Tmax in Sprague-Dawley rat at 10 mg/kg, po measured for each 30 mins by LC-MS/MS analysis; assay type: ADME, organism-based; settings: in vivo
[17] = Cmax in Sprague-Dawley rat at 10 mg/kg, po measured for each 30 mins by LC-MS/MS analysis; assay type: ADME, organism-based; design: dose 10 mg/kg, route oral; settings: in vivo
[18] = target: Glycogen synthase kinase-3 beta (Homo sapiens) (UniProt P49841); assay: Inhibition of human GSK3B at 10 uM using YRRAAVPPSPSLSRHSSPHQ(pS)EDEEE as substrate by [gamma-33P]-ATP assay relative to control
[19] = target: Dual specificity mitogen-activated protein kinase kinase 1 (Homo sapiens) (UniProt Q02750); assay: Inhibition of human MEK1 at 10 uM using ERK2 as substrate by [gamma-33P]-ATP assay relative to control
[20] = target: Hepatocyte growth factor receptor (Homo sapiens, UniProt P08581); assay: Inhibition of human c-MET at 10 uM using KKKSPGEYVNIEFG as substrate by [gamma-33P]-ATP assay relative to control
[21] = target: Fibroblast growth factor receptor 1 (Homo sapiens) (UniProt P11362); assay: Inhibition of human FGFR1 at 10 uM using KKKSPGEYVNIEFG as substrate by [gamma-33P]-ATP assay relative to control
[22] = target: Receptor tyrosine-protein kinase erbB-4 (Homo sapiens) (UniProt Q15303); assay: Inhibition of human ERBB4 at 10 uM using poly[Glu:Tyr] (4:1) as substrate by [gamma-33P]-ATP assay relative to control
Homo sapiens [23] = species: Homo sapiens; assay: Selectivity index, ratio of IC50 for human c-MET to IC50 for human p38alpha
[24] = Clearance in Sprague-Dawley rat at 10 mg/kg, iv measured for each 30 mins by LC-MS/MS analysis; assay type: ADME, organism-based; settings: in vivo
[25] = tested on: Mitogen-activated protein kinase 14 (Homo sapiens), Q16539 [T106M]; assay: Inhibition of human p38alpha T106M mutant at 10 uM using MBP as substrate by [gamma-33P]-ATP assay relative to control
[26] = Stability in human plasma assessed as remaining compound at 10 uM incubated for 30 mins by LC-MS analysis; assay type: ADME, cell-free; settings: read-out: Stability
[27] = target: Serine/threonine-protein kinase mTOR (Homo sapiens) (UniProt P42345); assay: Inhibition of human mTOR at 10 uM using 4EBP1 as substrate by [gamma-33P]-ATP assay relative to control
[28] = target: Vascular endothelial growth factor receptor 2 (Homo sapiens) (UniProt P35968); assay: Inhibition of human KDR at 10 uM using poly[Glu:Tyr] (4:1) as substrate by [gamma-33P]-ATP assay relative to control
Homo sapiens [29] = species: Homo sapiens; assay: Selectivity index, ratio of IC50 for human ERG to IC50 for human p38alpha
[30] = target: T1, Mitogen-activated protein kinase 14; assay: Inhibition of human p38alpha at 10 uM using MBP as substrate by [gamma-33P]-ATP assay relative to control
[31] = AUCinfinity in Sprague-Dawley rat at 10 mg/kg, iv measured for each 30 mins by LC-MS/MS analysis; assay type: ADME, organism-based; design: dose 10 mg/kg, time infinity, route intravenous; settings: in vivo
Homo sapiens [32] = species: Homo sapiens; assay: Selectivity index, ratio of IC50 for human BRAF V600E mutant to IC50 for human p38alpha
[33] = Oral bioavailability in Sprague-Dawley rat at 10 mg/kg measured for each 30 mins by LC-MS/MS analysis; assay type: ADME, organism-based; settings: in vivo
[34] = Stability in rat plasma assessed as remaining compound at 10 uM incubated for 120 mins by LC-MS analysis; assay type: ADME, cell-free; settings: read-out: Stability

T1 sequence (Q16539 whole entry): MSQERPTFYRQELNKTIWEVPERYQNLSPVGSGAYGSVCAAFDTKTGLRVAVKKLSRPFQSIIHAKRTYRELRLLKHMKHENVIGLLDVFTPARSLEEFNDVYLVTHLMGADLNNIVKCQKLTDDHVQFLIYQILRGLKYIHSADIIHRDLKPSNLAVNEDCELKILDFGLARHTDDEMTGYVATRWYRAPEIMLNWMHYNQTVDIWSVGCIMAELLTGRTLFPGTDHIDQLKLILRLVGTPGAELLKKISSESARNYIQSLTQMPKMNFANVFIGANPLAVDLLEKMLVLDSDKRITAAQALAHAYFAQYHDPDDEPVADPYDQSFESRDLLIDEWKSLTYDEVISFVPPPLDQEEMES
Sequence of Mast/stem cell growth factor receptor Kit (Homo sapiens) (P10721 whole entry): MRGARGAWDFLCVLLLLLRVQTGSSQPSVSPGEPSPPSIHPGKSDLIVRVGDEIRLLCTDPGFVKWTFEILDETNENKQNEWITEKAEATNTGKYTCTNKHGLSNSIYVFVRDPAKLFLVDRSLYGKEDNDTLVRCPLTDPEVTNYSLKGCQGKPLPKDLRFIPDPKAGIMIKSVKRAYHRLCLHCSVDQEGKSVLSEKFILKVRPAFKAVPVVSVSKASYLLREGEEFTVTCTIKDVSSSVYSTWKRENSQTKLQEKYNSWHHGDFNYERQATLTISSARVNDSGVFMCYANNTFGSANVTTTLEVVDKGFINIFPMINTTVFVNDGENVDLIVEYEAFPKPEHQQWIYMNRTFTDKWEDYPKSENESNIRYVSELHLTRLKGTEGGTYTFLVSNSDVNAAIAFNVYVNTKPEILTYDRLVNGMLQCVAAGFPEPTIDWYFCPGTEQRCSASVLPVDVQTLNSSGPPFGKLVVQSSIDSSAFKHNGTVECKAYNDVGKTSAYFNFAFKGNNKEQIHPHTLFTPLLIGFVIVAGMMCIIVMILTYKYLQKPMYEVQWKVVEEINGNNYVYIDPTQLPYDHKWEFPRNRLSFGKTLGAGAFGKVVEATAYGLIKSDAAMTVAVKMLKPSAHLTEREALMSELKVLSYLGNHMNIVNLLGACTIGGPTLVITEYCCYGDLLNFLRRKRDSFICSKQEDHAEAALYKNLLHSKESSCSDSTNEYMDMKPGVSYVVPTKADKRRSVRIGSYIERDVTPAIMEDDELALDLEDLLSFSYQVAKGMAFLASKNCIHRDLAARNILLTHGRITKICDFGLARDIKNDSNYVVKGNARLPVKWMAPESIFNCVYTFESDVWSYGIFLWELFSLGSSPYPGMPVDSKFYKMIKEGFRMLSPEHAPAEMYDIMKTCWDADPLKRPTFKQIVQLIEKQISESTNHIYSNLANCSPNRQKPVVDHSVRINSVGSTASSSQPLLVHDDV
Sequence of Tyrosine-protein kinase BTK (Homo sapiens) (Q06187 whole entry): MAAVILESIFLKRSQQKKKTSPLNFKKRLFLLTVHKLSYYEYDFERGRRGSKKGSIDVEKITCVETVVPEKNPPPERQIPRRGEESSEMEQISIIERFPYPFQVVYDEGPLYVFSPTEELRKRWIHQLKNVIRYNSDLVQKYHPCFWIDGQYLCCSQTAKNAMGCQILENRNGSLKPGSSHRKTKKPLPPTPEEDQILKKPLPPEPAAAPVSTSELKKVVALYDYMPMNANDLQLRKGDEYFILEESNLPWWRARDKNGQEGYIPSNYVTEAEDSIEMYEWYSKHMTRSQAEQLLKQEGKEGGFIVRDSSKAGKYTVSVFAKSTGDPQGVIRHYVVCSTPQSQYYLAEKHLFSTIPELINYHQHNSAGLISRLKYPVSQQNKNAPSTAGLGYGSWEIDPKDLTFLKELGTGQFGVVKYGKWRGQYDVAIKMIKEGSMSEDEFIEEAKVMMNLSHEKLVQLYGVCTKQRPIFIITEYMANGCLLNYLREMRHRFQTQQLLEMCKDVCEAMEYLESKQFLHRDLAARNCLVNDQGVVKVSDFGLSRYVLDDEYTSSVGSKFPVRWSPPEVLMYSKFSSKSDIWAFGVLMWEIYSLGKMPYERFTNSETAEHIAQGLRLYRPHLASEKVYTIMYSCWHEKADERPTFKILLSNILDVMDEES
Sequence of Dual specificity mitogen-activated protein kinase kinase 1 (Homo sapiens) (Q02750 whole entry): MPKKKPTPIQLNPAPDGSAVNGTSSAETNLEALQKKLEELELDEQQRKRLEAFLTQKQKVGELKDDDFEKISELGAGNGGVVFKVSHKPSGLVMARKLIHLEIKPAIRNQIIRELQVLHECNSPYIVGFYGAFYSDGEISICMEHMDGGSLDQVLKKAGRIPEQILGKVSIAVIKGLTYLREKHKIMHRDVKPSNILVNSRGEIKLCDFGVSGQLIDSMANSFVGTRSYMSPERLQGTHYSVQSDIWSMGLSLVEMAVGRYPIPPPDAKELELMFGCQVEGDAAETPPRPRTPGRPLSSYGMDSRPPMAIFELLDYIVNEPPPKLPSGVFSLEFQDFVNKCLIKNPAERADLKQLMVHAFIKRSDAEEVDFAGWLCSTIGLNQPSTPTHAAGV
Sequence of Epidermal growth factor receptor (Homo sapiens) (P00533 whole entry): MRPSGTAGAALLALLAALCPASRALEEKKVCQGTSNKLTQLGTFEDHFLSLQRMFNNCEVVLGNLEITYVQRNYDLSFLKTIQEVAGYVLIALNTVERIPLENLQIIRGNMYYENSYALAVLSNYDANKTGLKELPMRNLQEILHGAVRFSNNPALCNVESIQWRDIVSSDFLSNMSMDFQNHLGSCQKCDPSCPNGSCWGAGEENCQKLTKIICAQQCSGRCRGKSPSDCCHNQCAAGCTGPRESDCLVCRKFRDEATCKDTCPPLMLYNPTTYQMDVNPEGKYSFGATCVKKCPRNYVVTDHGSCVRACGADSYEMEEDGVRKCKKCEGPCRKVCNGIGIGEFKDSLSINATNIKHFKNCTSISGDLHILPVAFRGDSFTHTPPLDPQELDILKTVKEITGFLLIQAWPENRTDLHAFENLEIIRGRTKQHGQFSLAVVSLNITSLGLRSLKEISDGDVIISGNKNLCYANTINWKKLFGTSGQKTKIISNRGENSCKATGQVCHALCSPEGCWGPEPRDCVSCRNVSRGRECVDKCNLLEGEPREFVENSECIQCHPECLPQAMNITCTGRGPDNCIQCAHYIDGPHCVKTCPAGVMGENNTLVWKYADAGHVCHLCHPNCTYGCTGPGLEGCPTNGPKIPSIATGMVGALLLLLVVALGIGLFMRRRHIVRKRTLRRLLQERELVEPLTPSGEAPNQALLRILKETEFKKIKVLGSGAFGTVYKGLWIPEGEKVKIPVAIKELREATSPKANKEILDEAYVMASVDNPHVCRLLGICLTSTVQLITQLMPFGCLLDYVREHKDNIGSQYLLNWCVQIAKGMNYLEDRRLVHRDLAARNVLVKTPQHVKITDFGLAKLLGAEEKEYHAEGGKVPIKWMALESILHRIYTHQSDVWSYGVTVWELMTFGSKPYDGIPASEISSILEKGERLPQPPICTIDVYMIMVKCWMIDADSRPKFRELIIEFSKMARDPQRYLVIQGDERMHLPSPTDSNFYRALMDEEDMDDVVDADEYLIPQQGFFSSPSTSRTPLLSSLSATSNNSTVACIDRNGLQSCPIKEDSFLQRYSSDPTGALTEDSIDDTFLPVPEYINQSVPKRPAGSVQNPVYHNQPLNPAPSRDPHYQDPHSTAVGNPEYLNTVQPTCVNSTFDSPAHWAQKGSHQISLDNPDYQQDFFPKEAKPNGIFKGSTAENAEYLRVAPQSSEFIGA
Sequence of Vascular endothelial growth factor receptor 2 (Homo sapiens) (P35968 whole entry): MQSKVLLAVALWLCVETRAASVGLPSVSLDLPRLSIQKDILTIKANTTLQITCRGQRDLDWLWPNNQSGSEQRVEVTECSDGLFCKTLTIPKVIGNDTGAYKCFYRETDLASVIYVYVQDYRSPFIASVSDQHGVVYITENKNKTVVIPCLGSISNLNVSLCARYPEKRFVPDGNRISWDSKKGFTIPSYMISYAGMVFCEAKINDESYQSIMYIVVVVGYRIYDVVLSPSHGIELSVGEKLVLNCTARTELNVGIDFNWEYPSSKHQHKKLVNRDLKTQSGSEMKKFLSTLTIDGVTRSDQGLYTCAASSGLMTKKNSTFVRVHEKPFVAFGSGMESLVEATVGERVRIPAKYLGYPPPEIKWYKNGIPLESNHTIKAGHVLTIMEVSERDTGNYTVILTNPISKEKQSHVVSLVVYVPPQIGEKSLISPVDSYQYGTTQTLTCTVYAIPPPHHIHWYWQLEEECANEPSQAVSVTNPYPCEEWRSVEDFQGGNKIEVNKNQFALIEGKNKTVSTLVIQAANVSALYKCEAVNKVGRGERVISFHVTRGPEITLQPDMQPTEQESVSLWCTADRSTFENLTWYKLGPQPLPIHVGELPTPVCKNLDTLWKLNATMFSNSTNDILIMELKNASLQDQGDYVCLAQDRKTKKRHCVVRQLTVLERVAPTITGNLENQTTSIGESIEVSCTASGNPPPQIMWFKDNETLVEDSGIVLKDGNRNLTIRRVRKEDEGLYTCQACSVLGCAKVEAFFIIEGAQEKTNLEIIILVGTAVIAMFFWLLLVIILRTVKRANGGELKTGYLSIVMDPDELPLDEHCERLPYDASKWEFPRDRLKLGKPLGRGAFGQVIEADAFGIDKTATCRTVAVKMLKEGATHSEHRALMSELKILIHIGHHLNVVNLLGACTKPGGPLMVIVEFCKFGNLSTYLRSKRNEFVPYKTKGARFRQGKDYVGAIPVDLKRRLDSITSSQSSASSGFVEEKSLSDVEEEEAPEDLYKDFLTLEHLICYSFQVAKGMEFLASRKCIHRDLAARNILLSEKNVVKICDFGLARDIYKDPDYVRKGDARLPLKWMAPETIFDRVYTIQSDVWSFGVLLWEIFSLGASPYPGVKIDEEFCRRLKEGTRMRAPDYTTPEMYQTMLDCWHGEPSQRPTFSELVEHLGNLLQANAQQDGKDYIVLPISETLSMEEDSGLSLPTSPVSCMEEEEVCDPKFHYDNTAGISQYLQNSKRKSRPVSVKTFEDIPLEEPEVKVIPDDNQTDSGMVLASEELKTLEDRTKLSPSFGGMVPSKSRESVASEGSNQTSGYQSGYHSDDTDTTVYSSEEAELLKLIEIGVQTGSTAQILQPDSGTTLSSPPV
Sequence of Mitogen-activated protein kinase 14 (Homo sapiens), Q16539 [T106M] (Q16539 whole entry T106M): as the sequence (Q16539 whole entry) above, with T106M counted along it

Compound: COc1ccc(-c2nn(-c3cccc(NC(=O)c4cccc(C(F)(F)F)c4)c3)cc2-c2ccncc2)cc1Cl
- IC50 [1]: 13.1 µM
- IC50 [2]: 0.022 µM
- inhibition [3]: -1.83%
- inhibition [4]: 24.5%
- inhibition [5]: 1.72%
- inhibition [6]: 27%
- inhibition [7]: 90.5%
- inhibition [8]: 90.8%
- inhibition [9]: -7.68%
- inhibition [10]: 5.62%
- inhibition [11]: 5.66%
- inhibition in vivo at 50 mg/kg (Rattus norvegicus): 66.5%
- AUC(0-t) at 0.5 h [12]: 1450 ng·h/mL
- inhibition [13]: -5.65%
- AUC(0-inf) [14]: 169 ng·h/mL
- inhibition [15]: 64.2%
- Tmax [16]: 1.2 h
- Cmax [17]: 33.2 ng/mL
- inhibition [18]: -6.34%
- inhibition [19]: 12.2%
- inhibition [20]: 77.7%
- inhibition [21]: 24.4%
- inhibition [22]: 26.9%
- Ratio IC50 (Homo sapiens [23]): 455
- clearance [24]: 90 mL/min/kg
- inhibition [25]: -4.1%
- remaining at 0.5 h, 10 µM [26]: 100%
- inhibition [27]: 6.75%
- inhibition [28]: 13.2%
- Ratio IC50 (Homo sapiens [29]): 23.8
- inhibition [30]: 94.6%
- AUC(0-inf) [31]: 1460 ng·h/mL
- Ratio IC50 (Homo sapiens [32]): 7.18
- bioavailability [33]: 11.3%
- remaining at 2 h, 10 µM [34]: 100%
